Ki data for nine compounds are collected here from ChEMBL document CHEMBL3639372, “Disubstituted azepan orexin receptor antagonists” (2014).

The assay deals with T1, Orexin/Hypocretin receptor type 1 (Rattus norvegicus, UniProt P56718).
T1 sequence (P56718 whole entry): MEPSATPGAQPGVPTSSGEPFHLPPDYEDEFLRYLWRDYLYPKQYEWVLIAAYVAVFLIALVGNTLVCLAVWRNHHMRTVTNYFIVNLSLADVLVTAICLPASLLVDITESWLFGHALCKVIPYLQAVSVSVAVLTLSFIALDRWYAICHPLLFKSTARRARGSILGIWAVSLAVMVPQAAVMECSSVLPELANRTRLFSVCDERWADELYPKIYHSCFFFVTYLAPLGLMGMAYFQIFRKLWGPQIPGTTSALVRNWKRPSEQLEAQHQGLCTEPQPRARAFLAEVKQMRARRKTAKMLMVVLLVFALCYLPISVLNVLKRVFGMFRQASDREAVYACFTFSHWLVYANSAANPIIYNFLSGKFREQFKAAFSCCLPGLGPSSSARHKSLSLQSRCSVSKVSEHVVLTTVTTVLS
As to the kind of experiment: Radioligand Binding Assay: Compound potency can be assessed by a radioligand binding assay (described in Bergman et. al. Bioorg. Med. Chem. Lett. 2008, 18, 1425-1430) in which the inhibition constant (Ki) is determined in membranes prepared from CHO cells expressing either the orexin-1 (OX1) or orexin-2 (OX2) receptor. It counts as cell membranes.
A word on the Ki: it is the dissociation constant of the complex between target and ligand, obtained from inhibition or displacement. Low values mean higher affinity, high ones lower affinity. As for `Cc1ccc(-c2ncccn2)c(C(=O)N2CC(COc3ccc(F)cn3)CCCC2C)c1` (centres undefined), the affinity, expressed as Ki, was 310 nM. Then `Cc1ccc(-c2ncccn2)c(C(=O)N2CC(COc3ccc(F)c(C)c3)CCCC2C)c1` (centres undefined), with 42 nM; and `Cc1ccc(-n2nccn2)c(C(=O)N2CCCCC(COc3ccc(F)c(C)c3)C2)c1` (centres undefined), with 15 nM. The same measure for `Cc1ccc(-c2nccs2)c(C(=O)N2CC(COc3ccc(F)cn3)CCCC2C)c1` (centres undefined): 73 nM; for `Cc1ccc(-n2nccn2)c(C(=O)N2CC(COc3ccc(F)c(C)c3)CCCC2C)c1` (centres undefined): 8.7 nM. The same measure for `Cc1cc(OCC2CCCC(C)N(C(=O)c3ccccc3-n3nccn3)C2)ccc1F` (centres undefined): 50 nM; for `Cc1ccc(-n2nccn2)c(C(=O)N2CC(COc3ccc(F)cn3)CCCC2C)c1` (centres undefined): 150 nM. For the compound `Cc1cc(OCC2COCC(C)N(C(=O)c3ccccc3-n3nccn3)C2)ccc1F` (centres undefined), the Ki turned out to be 39 nM. As to `Cc1ccc(-n2nccn2)c(C(=O)N2CC(COc3ccc(F)c(C)c3)COCC2C)c1` (centres undefined), the inhibition constant Ki is 5.1 nM.
